Test results reported in ChEMBL document CHEMBL3414556, “Targeting aldose reductase for the treatment of diabetes complications and inflammatory diseases: new insights and future directions” (J Med Chem, 2015).

Assays:
[1] = target: Aldo-keto reductase family 1 member B10 (Homo sapiens, UniProt O60218); assay: Inhibition of wild-type N-terminal 6-His tagged AKR1B10 (unknown origin) expressed in Escherichia coli BL21(DE3) assessed as pyridine-3-aldehyde reduction by spectrophotometry
[2] = target: T1, Aldo-keto reductase family 1 member B1 (Homo sapiens, UniProt P15121); assay: Inhibition of human AR by fluorescence assay
[3] = target: T1, Aldo-keto reductase family 1 member B1; assay: Inhibition of human AR

Chain of Aldo-keto reductase family 1 member B10 (O60218 whole entry): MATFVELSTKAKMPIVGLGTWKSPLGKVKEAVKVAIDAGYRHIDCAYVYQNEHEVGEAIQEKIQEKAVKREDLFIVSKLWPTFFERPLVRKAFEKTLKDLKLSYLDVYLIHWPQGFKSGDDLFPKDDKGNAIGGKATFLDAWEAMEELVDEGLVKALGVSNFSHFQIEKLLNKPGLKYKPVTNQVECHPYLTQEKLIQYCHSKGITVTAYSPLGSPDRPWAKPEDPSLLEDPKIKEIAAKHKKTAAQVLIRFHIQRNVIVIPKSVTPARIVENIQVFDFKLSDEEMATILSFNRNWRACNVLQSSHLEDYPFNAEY

O=C(O)Cc1ccccc1Nc1c(Cl)cccc1Cl [DICLOFENAC]
IC50 [1]: 1900 nM

Cc1cccc(Nc2ccccc2C(=O)O)c1C [MEFENAMIC ACID]
IC50 [1]: 1600 nM | IC50 [2]: 77000 nM

CC(=O)Oc1ccccc1C(=O)Nc1ncc([N+](=O)[O-])s1 [NITAZOXANIDE]
IC50 [3]: 8220 nM

O=C(O)c1ccccc1Nc1cccc(C(F)(F)F)c1 [FLUFENAMIC ACID]
IC50 [1]: 760 nM
